pEC50: −log10 of the molar value. Read-outs that look alike come from different tables or passages of the source.
Target: T1, PPARγ (Homo sapiens, UniProt P37231)
T1 construct: expressed in transfected cells
T1 sequence (P37231 238-503 limits assumed): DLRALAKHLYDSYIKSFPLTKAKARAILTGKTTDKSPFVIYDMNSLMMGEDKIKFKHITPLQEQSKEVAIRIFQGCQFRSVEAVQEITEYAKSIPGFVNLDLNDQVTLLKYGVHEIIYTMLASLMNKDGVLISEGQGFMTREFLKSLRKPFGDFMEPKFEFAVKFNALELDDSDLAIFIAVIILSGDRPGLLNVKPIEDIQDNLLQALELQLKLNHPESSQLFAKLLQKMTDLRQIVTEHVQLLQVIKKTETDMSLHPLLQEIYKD
Assay: cell-based chimeric receptor transcription assay (PPAR ligand binding domain fused to GAL4 DNA binding domain, GAL4-regulated luciferase reporter)
Conditions: for RE: RE Conc. 16 μM
Protocol: To determine if these compounds can activate PPARγ or the members of the PPAR family of nuclear receptors (PPARα and PPARδ), the ability of these compounds to activate PPAR receptors in a cell-based chimeric receptor transcription assay were tested. This is a standard nuclear receptor ligand activity assay that utilizes the ligand binding domain of the PPAR receptor fused to a heterologous GAL4 DNA binding domain. The transcriptional read-out is from a GAL4-regulated luciferase reporter. In this assay, compounds that activate the receptor cause an increase in luciferase activity measured in a luminometer. The data are shown in Table 1 below (average luciferase values from transcription assay).

[1] = 1.02 μM conc., * above background
[2] = 2.6 μM conc., * above background
[3] = 6.4 μM conc., * above background
[4] = 16 μM conc., * above background
[5] = 40 μM conc., * above background
[6] = calculated EC50, PPARγ agonist assay, Table 2, read-out: EC50
[7] = read-out: activation of PPARγ, potency (EC50)

Compound	average luciferase values from transcription assay (0.16 μM conc.)	average luciferase values from transcription assay (0.41 μM conc.)	average luciferase values from transcription assay [1]	average luciferase values from transcription assay [2]	average luciferase values from transcription assay [3]	average luciferase values from transcription assay [4]	average luciferase values from transcription assay [5]	RE	pEC50 [6]	pEC50 [7]
CC/C=C\C/C=C\C/C=C\C/C=C\C/C=C\C/C=C\CCCC1SC(=O)NC1=O (centres unmarked) [DHA-TZ, 5-((4Z,7Z,10Z,13Z,16Z,19Z)-docosa-4,7,10,13,16,19-hexaenyl)thiazolidine-2,4-dione]	106	145	167*	207*	623*	1454*	1868*	1354	5.01	5.00
CC/C=C\C/C=C\C/C=C\C/C=C\C/C=C\CCCC(=O)OCC [EPA Et Ester, eicosapentaenoic acid ethyl ester, reference compound]									< 4.00	
CC/C=C\C/C=C\C/C=C\C/C=C\C/C=C\CCCCC1SC(=O)NC1=O (centres unmarked) [EPA-TZ, 5-((5Z,8Z,11Z,14Z,17Z)-eicosa-5,8,11,14,17-pentaenyl)thiazolidine-2,4-dione]	128	123	164*	297*	705*	1416*	48^	1316		4.92
